Assay results: PubChem BioAssay AID2060884 (Molecular Pharmacology Branch, DTP, NCI, 2025)
Each block holds one molecule with its values, some of them ahead of it.

Test system: NCI-H929 complex spheroids, viability % test/control
Experiment: Anticancer human tumor NCI-H929 cell line growth inhibition [RAS];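 further: compound exposure lasted seven days before viability was read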
Settings: for IC50: curve of first compound; for viability, T/C: stronger effect = lower value
From the text: RAS pathway inhibitors in Combinations in Complex Spheroids
A high-throughput screen of multi-cell type tumor spheroids was designed to identify active combinations of RAS pathway inhibitors and targeted small molecules. Complex spheroids include a stromal component modeled by human endothelial cells (HUVEC) and fibroblasts modeled by human mesenchymal stem cells (MSCs). The concentration ranges selected for each drug and investigational agent were based upon clinically achievable concentrations if the clinical Cmax of the agent was known.
Compounds. The drugs and investigational agents: abemaciclib (NSC768073), cobimetinib (NSC768068), divarasib (GDC6063, NSC841802), docetaxel (NSC628503), GDC-1971 (RLY-1971, NSC841576), gemcitabine (NSC613327), inavolisib (NSC800729), ipatasertib (NSC767898), KB-0742 (NSC834161), MRTX-1133 (NSC836407), osimertinib (NSC779217), RMC-4630 (NSC839698), RMC-6236 (NSC851965), RMC-6291 (NSC852671), Ro-3306 (NSC812927), sapanisertib (NSC764658), SN-38 (NSC673596), staurosporine (NSC755774), SY5609 (NSC837396), and tovorafenib (DAY101, NSC766906), were obtained from the National Cancer Institute (NCI) Developmental Therapeutics Program Chemical Repository. The FDA-approved anticancer drug set is available from the NCI Developmental Therapeutics Program. […] The stock solutions were prepared in dimethyl sulfoxide (DMSO, Sigma-Aldrich, St. Louis, MO, cat. D2650) at 800-fold the tested concentration and stored at -70 degrees C prior to their use. All drugs and investigational agents were tested over a range starting from a high concentration at or near the clinical Cmax and decreasing in half-log increments. If the clinical Cmax for an agent had not been determined, the highest concentration tested was 10 microM.
Cell Culture. All cells were maintained in an incubator at 37 degrees C and 5% CO2 with 95% humidity. The PDC lines were cultured according to standard operating procedures established by the NCI PDMR. All PDCs were thawed and cultured in Matrigel-coated flasks prepared with a working solution of 1X Ham's F-12 nutrient mix, without supplementation (Invitrogen, Waltham, MA, cat. 11765054), 100 U/mL penicillin-streptomycin (Invitrogen, cat. 15140122), and 2.5% Matrigel (Corning Inc., Corning, NY, cat. 354248) for the first three passages. The 362531-283-R-J2-PDC and 782815-120-R-J1-PDC lines were cultured in 6C/Colon 1B media, which includes advanced DMEM/F-12 (Thermo Fisher Scientific, cat. 12634028), 10 mM HEPES (Thermo Fisher Scientific, cat. 15630080), 1X GlutaMAX supplement (Thermo Fisher Scientific, cat. 35050061), 0.1 mg/mL primocin (InvivoGen, San Diego, CA, cat. ant-pm-2), 10% defined fetal bovine serum, heat inactivated (HyClone Laboratories Inc., Logan, UT, cat. SH30070.03HI), 50% L-WRN conditioned media (ATCC, cat. CRL-3276), 1.25 mM N-Acetyl-L-cysteine (Sigma-Aldrich, cat. A9165), 10 mM nicotinamide (Sigma-Aldrich, cat. N0636), 1X B-27 supplement (Thermo Fisher Scientific, cat. 17504044), 1X N-2 supplement (Thermo Fisher Scientific, cat. 17502048), 50 ng/mL human EGF (Thermo Fisher Scientific, cat. PHG0311), and 10 microM Y-27632 dihydrochloride (Tocris Bioscience, cat. 1254). The K12877-001-R-J1-PDC line was cultured in 6I media, which includes all 6C/Colon 1B media plus 10 ng/mL human FGF-10 (PeproTech, cat. 100-26), 1 ng/mL human FGF-2 (PeproTech, cat. 100-18B), 1 µM prostaglandin E2 (Tocris Bioscience, cat. 2296), […] hydrocortisone (Sigma-Aldrich, cat. H4001), and […] bovine insulin (Sigma-Aldrich, cat. I6634). The K86415-001-R-J1-PDC line was cultured in 6D media, which includes all 6C/Colon 1B media components minus the L-WRN conditioned media. The 485176-168-R4-J1-PDC was cultured in PANC media, which includes all 6C/Colon 1B media plus 100 ng/mL human FGF-10 (PeproTech, cat. 100-26), 500 nM SB-431542 (Selleckchem, cat. S1067), and 10 nM gastrin (Tocris Bioscience, cat. 3006). […]

[1] = second compound 0.0316 µM, first compound 0.000949 µM
[2] = second compound 0.0316 µM, first compound 0.003 µM
[3] = second compound 0.0316 µM, first compound 0.00949 µM
[4] = second compound 0.0316 µM, first compound 0.03 µM
[5] = second compound 0.0316 µM, first compound 0.0949 µM
[6] = second compound 0.0316 µM, first compound 0.3 µM
[7] = second compound 0.1 µM, first compound 0.000949 µM
[8] = second compound 0.1 µM, first compound 0.003 µM
[9] = second compound 0.1 µM, first compound 0.00949 µM
[10] = second compound 0.1 µM, first compound 0.03 µM
[11] = second compound 0.1 µM, first compound 0.0949 µM
[12] = second compound 0.1 µM, first compound 0.3 µM
[13] = second compound 0.316 µM, first compound 0.000949 µM
[14] = second compound 0.316 µM, first compound 0.003 µM
[15] = second compound 0.316 µM, first compound 0.00949 µM
[16] = second compound 0.316 µM, first compound 0.03 µM
[17] = second compound 0.316 µM, first compound 0.0949 µM
[18] = second compound 0.316 µM, first compound 0.3 µM
[19] = second compound 1 µM, first compound 0.000949 µM
[20] = second compound 1 µM, first compound 0.003 µM
[21] = second compound 1 µM, first compound 0.00949 µM
[22] = second compound 1 µM, first compound 0.03 µM
[23] = second compound 1 µM, first compound 0.0949 µM
[24] = second compound 1 µM, first compound 0.3 µM

- IC50 (second compound 0.00316 µM): 1.85 nM
- IC50 (second compound 0.01 µM): 1.94 nM
- IC50 (second compound 0.0316 µM): 1.99 nM
- IC50 (second compound 0.1 µM): 1.99 nM
- IC50 (second compound 0.316 µM): 2.03 nM
- IC50 (second compound 1 µM): 1.94 nM
Compound: CCc1c2c(nc3ccc(O)cc13)-c1cc3c(c(=O)n1C2)COC(=O)[C@]3(O)CC + C=CC(=O)N1CCN(c2nc(OCC3CCCN3C)nc3c(F)c(-c4nc(N)cc(C)c4C(F)(F)F)c(Cl)cc23)C(C)C1
- viability, T/C (second compound 0.00316 µM, first compound 0.000949 µM): 106%
- viability, T/C (second compound 0.00316 µM, first compound 0.003 µM): 9.93%
- viability, T/C (second compound 0.00316 µM, first compound 0.00949 µM): 1.39%
- viability, T/C (second compound 0.00316 µM, first compound 0.03 µM): 1.87%
- viability, T/C (second compound 0.00316 µM, first compound 0.0949 µM): 2.37%
- viability, T/C (second compound 0.00316 µM, first compound 0.3 µM): 1.53%
- viability, T/C (second compound 0.01 µM, first compound 0.000949 µM): 101%
- viability, T/C (second compound 0.01 µM, first compound 0.003 µM): 18.9%
- viability, T/C (second compound 0.01 µM, first compound 0.00949 µM): 2.06%
- viability, T/C (second compound 0.01 µM, first compound 0.03 µM): 3.03%
- viability, T/C (second compound 0.01 µM, first compound 0.0949 µM): 2.18%
- viability, T/C (second compound 0.01 µM, first compound 0.3 µM): 1.15%
- viability, T/C [1]: 103%
- viability, T/C [2]: 20.9%
- viability, T/C [3]: 1.84%
- viability, T/C [4]: 2.69%
- viability, T/C [5]: 2.18%
- viability, T/C [6]: 0.6%
- viability, T/C [7]: 104%
- viability, T/C [8]: 19.8%
- viability, T/C [9]: 1.52%
- viability, T/C [10]: 1.4%
- viability, T/C [11]: 1.53%
- viability, T/C [12]: 0.65%
- viability, T/C [13]: 107%
- viability, T/C [14]: 20.4%
- viability, T/C [15]: 1.92%
- viability, T/C [16]: 2.44%
- viability, T/C [17]: 1.37%
- viability, T/C [18]: 0.74%
- viability, T/C [19]: 116%
- viability, T/C [20]: 9.86%
- viability, T/C [21]: 2.04%
- viability, T/C [22]: 2.87%
- viability, T/C [23]: 1.52%
- viability, T/C [24]: 0.6%

- IC50 (second compound 0.0316 µM): 1.88 nM
- IC50 (second compound 0.1 µM): 1.97 nM
- IC50 (second compound 0.316 µM): 1.83 nM
- IC50 (second compound 1 µM): 1.85 nM
- IC50 (second compound 3.16 µM): 1.83 nM
- IC50 (second compound 10 µM): 1.7 nM
Compound: CCc1c2c(nc3ccc(O)cc13)-c1cc3c(c(=O)n1C2)COC(=O)[C@]3(O)CC + C#Cc1c(F)ccc2cc(O)cc(-c3ncc4c(N5CC6CCC(C5)N6)nc(OCC56CCCN5CC(F)C6)nc4c3F)c12
- viability, T/C [1]: 107%
- viability, T/C [2]: 11.1%
- viability, T/C [3]: 1.08%
- viability, T/C [4]: 1.06%
- viability, T/C [5]: 2.09%
- viability, T/C [6]: 1.3%
- viability, T/C [7]: 103%
- viability, T/C [8]: 19%
- viability, T/C [9]: 1.39%
- viability, T/C [10]: 3.06%
- viability, T/C [11]: 2.48%
- viability, T/C [12]: 0.71%
- viability, T/C [13]: 103%
- viability, T/C [14]: 10.5%
- viability, T/C [15]: 1.36%
- viability, T/C [16]: 2.4%
- viability, T/C [17]: 1.35%
- viability, T/C [18]: 1.02%
- viability, T/C [19]: 104%
- viability, T/C [20]: 11.1%
- viability, T/C [21]: 1.18%
- viability, T/C [22]: 1.37%
- viability, T/C [23]: 0.94%
- viability, T/C [24]: 0.76%
- viability, T/C (second compound 3.16 µM, first compound 0.000949 µM): 104%
- viability, T/C (second compound 3.16 µM, first compound 0.003 µM): 9.19%
- viability, T/C (second compound 3.16 µM, first compound 0.00949 µM): 2.65%
- viability, T/C (second compound 3.16 µM, first compound 0.03 µM): 1.69%
- viability, T/C (second compound 3.16 µM, first compound 0.0949 µM): 1.26%
- viability, T/C (second compound 3.16 µM, first compound 0.3 µM): 0.49%
- viability, T/C (second compound 10 µM, first compound 0.000949 µM): 92%
- viability, T/C (second compound 10 µM, first compound 0.003 µM): 9.27%
- viability, T/C (second compound 10 µM, first compound 0.00949 µM): 1.7%
- viability, T/C (second compound 10 µM, first compound 0.03 µM): 1.05%
- viability, T/C (second compound 10 µM, first compound 0.0949 µM): 1.19%
- viability, T/C (second compound 10 µM, first compound 0.3 µM): 0.41%
